The text below walks through data of US20240270712A1, “BENZIMIDAZOLE COMPOUND OR SALT THEREOF, CANINE FILARIASIS CONTROL AGENT CONTAINING SAME, AND METHOD OF USE THEREOF” (NIHON NOHYAKU CO., LTD., priority 2021, published 2024).

The term inhibition denotes how much of the control response was suppressed.

SMILES strings stand for the structures. Where only a bound is given, the exact number is not on record here.

The test system of the test is L-3 stage larvae of canine filariae (Dirofilaria immitis). The experiment in a line: Impact evaluation test on growth of canine filariae. It counts as cell-based. To be noted: 168 h, read-out: growth inhibition rate (growth from L3-stage larvae to L4-stage larvae).

Take `FC(F)(F)C(F)(F)COc1ccc(-c2nc3cc(Br)c(Br)cc3[nH]2)cn1` [Compound 1-5, 5,6-dibromo-2-(6-(2,2,3,3,3-pentafluoropropyloxy)pyridin-3-yl)benzimidazole]: the inhibition at 50 ppm is at least 50%.
